Laboratory results: patent publication US20100272706A1, “ANTIVIRALS” (priority 2007, published 2010)
Read-outs that look alike come from different tables or passages of the source.

Assays:
Assay type in all cases: cell-based
[1] = tested on: vaccinia virus mature virions (EGFP-MV)
[2] = tested on: MV-induced blebbing of HeLa cells; details: microscopy
[3] = tested on: vaccinia virus mature virions (MV entry)
[4] = tested on: vaccinia virus mature virions (mYFP-MV)
[5] = tested on: vaccinia virus mature virions (mYFP-MV); remark: listed apart in the source
[6] = tested on: vaccinia virus mature virions

Cc1ccc2c(c1)C(=O)C1(O)CCN(c3ccccc3)C1=N2 (centres unmarked) [Blebbistatin]
inhibition of viral infection [1]: 62%
MV-induced bleb formation [2]: prevented formation of the blebs
MV-induced bleb formation ([2]; listed as blebbistatin): inhibited bleb-formation

O=C(Nc1cccc(Nc2cc(Nc3cccc(C(F)(F)F)c3)ncn2)c1)C1CC1 [EGFR inhibitor 324674]
MV entry [3]: effectively blocks MV entry

CCN(c1nc(N)c(C(=O)N=C(N)N)nc1Cl)C(C)C [EIPA, 5-N-ethyl-N-isopropyl-amiloride]
inhibition of viral infection [1]: 90%
MV-induced bleb formation [2]: inhibited bleb-formation
internalization of MV into FITC-dextran positive vacuoles [4]: prevented internalization

O=c1c(-c2ccc(O)cc2)coc2cc(O)cc(O)c12 [genistein]
inhibition of viral infection [1]: up to 82%

COC[C@H]1OC(=O)c2coc3c2[C@@]1(C)C1=C(C3=O)[C@@H]2CCC(=O)[C@@]2(C)C[C@H]1OC(C)=O [wortmannin]
inhibition of viral infection [1]: up to 63%

ANX5
infectivity [1]: no effect
inhibition of infection by masking of viral PS [1]: 95%
MV binding to cells [5]: without affecting MV binding
viral binding [5]: no effect

phosphatidylserine [PS]
fraction of original infectivity and plaque formation rescued [6]: 90%
